“Also recorded” adds a separate entry of the source. Where a name gives a salt, the structure may show the parent alone. Read-outs that look alike come from different tables or passages of the source.

This is an account of results in patent publication US6610748B1, “Preventives/remedies for skin aging” (Fujisawa Pharmaceutical Co., Ltd., priority 1998, dated 2003).

For series [1], the system named is hairless dogs. Description: Skin condition (remission of wrinkles) in old hairless dogs, gross observation and video macroscope. To be noted: 0.2% and 0.02% in PEG. It is filed as in vivo, dog. As to the method:
(§1) The therapeutic efficacy of neutrophil (leukocyte) elastase inhibitors in “dermal aging” was evaluated in hairless dogs.
(§2) Two adult (old) experimental hairless dogs constructed by cross-breeding of a Mexican hairless dog and a beagle dog were used. Old dogs presenting with age-associated fine “wrinkles” , not observed in young dogs, on the body surface were used as subject animals.
5) Polyethylene glycol (PEG) (solvent control) (PEG was used as the solvent for drugs 1˜4)
(§3) Each drug was applied in one location (a total of 5 locations) on the back (5×5 cm) of each dog. The drug was applied in a dosing volume of about 4 μL/cm^2 once daily (except on Saturdays, Sundays and holidays) for 3 months.
1) Skin condition: Gross observation and observation with a video macroscope

For series [2] the following is noted: qualitative, by solvent, cited from earlier work.
Series [3] deals with hairless dogs. Description: Histology of biopsy samples from old hairless dogs (van Gieson's stain, Weigert's stain). It is filed as in vivo. The settings on record: Dog No. 8807, 3 months. As to the method:
The therapeutic efficacy of neutrophil (leukocyte) elastase inhibitors in “dermal aging” was evaluated in hairless dogs. Two adult (old) experimental hairless dogs constructed by cross-breeding of a Mexican hairless dog and a beagle dog were used. Old dogs presenting with age-associated fine “wrinkles” , not observed in young dogs, on the body surface were used as subject animals. Each drug was applied in one location (a total of 5 locations) on the back (5×5 cm) of each dog. The drug was applied in a dosing volume of about 4 μL/cm^2 once daily (except on Saturdays, Sundays and holidays) for 3 months. 2) Histology: Observation of histological changes in biopsy samples by H-E (hematoxylin-eosin) stain (general staining) , van Gieson's stain (staining of collagen fiber) and Weigert's stain (staining of elastin fiber)

In series [4] the test system is hairless dogs. Description: Skin thickness: thickness of the epidermis (excluding the horny layer) in H-E stained tissue samples of old hairless dogs. To be noted: for Thickness of the epidermis, value after the arrow (after treatment): FK706 0.2% topical once daily for 3 months; for Thickness of the epidermis, value after the arrow (after treatment) / Thickness of the epidermis, value before the arrow (initial): mean±SD. It is filed as in vivo, dog. As to the method: as §1, §2, §3

The mark [5] stands for this setting: gross observation, dog No. 8807 (10 yr old, male), about 4 μL/cm2 on the back once daily for 3 months.
The mark [6] stands for this setting: gross observation, dog No. 8808 (10 yr old, female), about 4 μL/cm2 on the back once daily for 3 months.
Where [7] appears, read: observation with a video macroscope, dog No. 8807, once daily for 3 months.
Setting [8] is: observation with a video macroscope, dog No. 8808, once daily for 3 months.

As for `C/C=C1\NC(=O)C2NC(=O)C(NC(=O)C(C)C)CCCNC(=O)Nc3cc(OS(=O)(=O)O)c(OS(=O)(=O)O)cc3C[C@@H](C(=O)NC(C(C)C)C(=O)OC2C)N(C)C(=O)C(Cc2ccccc2)N2C(=O)[C@H](CC[C@H]2O)NC1=O` (some centres unmarked) [FR134043, WS7622A disulfate ester disodium salt], the “Order of efficacy in the elimination or remission of wrinkles” value in the series on hairless dogs [1] (setting [5]) is on record as “FK706·0.1%>FK706·0.02%>FR134043·0.2%=FR134043·0.02%”; in the series on hairless dogs [1] (setting [6]) it was “FK706·0.2%>FK706·0.02%>FR134043·0.2%=FR134043·0.02%”; with hairless dogs [1] (setting [7]), “FK706·0.2%>FK706·0.02%>FR134043·0.2%>FR134043·0.02%”; with hairless dogs [1] (setting [8]) it was “FK706·0.2%=FK706·0.02%>FR134043·0.2%=FR134043 0.02%”. Moreover, the Solubility result in series [2] (disodium salt) is given as “Soluble: water, methanol; also recorded: Insoluble: chloroform, n-hexane”.

Take “WS7622A disulfate ester dipotassium salt”: the Solubility entry in series [2] (dipotassium salt) is given as “Soluble: water, methanol; also recorded: Insoluble: chloroform, n-hexane”.

For the compound `CC(C)C(NC(=O)[C@@H]1CCCN1C(=O)[C@@H](NC(=O)c1ccc(C(=O)NCC(=O)O)cc1)C(C)C)C(=O)C(F)(F)F` (mixture of isomers) [FK706, 3 (RS)-[[4-(carboxymethylaminocarbonyl)phenyl-carbonyl]-L-valyl-L-prolyl]amino-1,1,1-trifluoro-4-methyl-2-oxopentane], the “Order of efficacy in the elimination or remission of wrinkles” value in the series on hairless dogs [1] (setting [5]) is “FK706·0.1%>FK706·0.02%>FR134043·0.2%=FR134043·0.02%”; with hairless dogs [1] (setting [6]) it was “FK706·0.2%>FK706·0.02%>FR134043·0.2%=FR134043·0.02%”; in the series with hairless dogs [1] (setting [7]) it was “FK706·0.2%>FK706·0.02%>FR134043·0.2%>FR134043·0.02%”; in the series with hairless dogs [1] (setting [8]), “FK706·0.2%=FK706·0.02%>FR134043·0.2%=FR134043 0.02%”. The “Histological finding, Weigert's stain (elastin fiber)” value with hairless dogs [3] (topical) is “Growth of elastin fibrils (suspected to be oxytalan fiber which is said to disappear as increasing age) was found across the boundary between the epidermis and dermis”. Besides, the “Histological finding, van Gieson's stain (collagen fiber)” value in the series with hairless dogs [3] (FK706 0.2% topical) is “Neogenesis of a thin layer of collagen fiber was found across the boundary between the epidermis and dermis”. Moreover, the “Thickness of the epidermis, value after the arrow (after treatment)” value with hairless dogs [4] (Dog No. 8807) is 26.8±5.9 μm; in the series with hairless dogs [4] (Dog No. 8808), 42.0±9.0 μm. In addition, the “Thickness of the epidermis, value before the arrow (initial)” value was found to be 17.0±1.9 μm in the series on hairless dogs [4] (Dog No. 8807, location treated with FK706 0.2%) and 24.6±3.6 μm in the series on hairless dogs [4] (Dog No. 8808, location treated with FK706 0.2%). Also, in the series on hairless dogs [4] (location treated with FK706 0.2%, p<0.05 in both Dog 8807 and Dog 8808), the “Change in thickness of the epidermis” value is listed as “increased significantly”.
